The source of these data is US20230104936A1, “TRPML MODULATORS” (Casma Therapeutics, Inc., priority 2019, published 2023).

Where only a bound is given, the exact number is not on record here.

This experiment concerns TFEB. As to the kind of experiment: TFEB nuclear translocation assay, HeLa wt cells. The settings on record: 2 hrs compound treatment, Table 1 does not say HeLa wt or TRPML1 KO. Type of experiment: cell-based. The procedure, abridged:
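HeLa wt or TRPML1 KO cells treated 2 hrs with compounds at 37° C, fixed in 4% PFA, immunostained with anti-TFEB plus Alexa 488 secondary and Hoechst. Imaged at ×20, four fields/well; read-out is nuclear/perinuclear-ring TFEB intensity ratio, reported as AC50.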

Usually AC50 stands for the concentration at which the activity in the assay is half-maximal. A low value points to greater potency. Consider `C[C@@H]1COC[C@H](C)N1CC1CCN(c2c(F)cccc2NS(=O)(=O)c2ccc(S(=O)(=O)N(C)C)cc2)CC1` [Compound A-824, N4-[2-(4-{[(3R,5S)-3,5-dimethylmorpholin-4-yl]methyl}piperidin-1-yl)-3-fluorophenyl]-N1,N1-dimethylbenzene-1,4-disulfonamide], for which the AC50 (Homo sapiens, HeLa, 2 h) is not above 2000 nM. The same measure, in the same setting: as for `CC1(C)CC2(CCN(c3ccccc3NS(=O)(=O)c3cccc(C4CC4(F)F)c3)CC2)CO1` (centres unmarked) [Compound A-687, 3-(2,2-difluorocyclopropyl)-N-(2-{3,3-dimethyl-2-oxa-8-azaspiro[4.5]decan-8-yl}phenyl)benzene-1-sulfonamide], the figure is not above 2000 nM; as for `O=S(=O)(Nc1cc(Cl)ccc1N1CCC2(C1)OCc1ccccc12)c1ccc2c(c1)CCC2` (centres unmarked) [Compound A-357, N-(5-chloro-2-{3H-spiro[2-benzofuran-1,3′-pyrrolidin]-1′-yl}phenyl)-2,3-dihydro-1H-indene-5-sulfonamide], not below 10000 nM; as for `CC(C)(C)S(=O)(=O)c1ccc(S(=O)(=O)Nc2cccc(Cl)c2N2CCOCC2)cc1` [Compound A-278, N-[3-chloro-2-(morpholin-4-yl)phenyl]-4-(2-methylpropane-2-sulfonyl)benzene-1-sulfonamide], not below 10000 nM. The same measure, in the same setting: with `CN(C)S(=O)(=O)c1ccc(S(=O)(=O)Nc2cccc(F)c2N2CCC(N)(C(F)(F)F)CC2)cc1` [Compound A-821, N4-{2-[4-amino-4-(trifluoromethyl)piperidin-1-yl]-3-fluorophenyl}-N1,N1-dimethylbenzene-1,4-disulfonamide] the figure was not above 2000 nM.

The compound `CC(c1ccc(S(=O)(=O)Nc2ccccc2N2CCC(CN3C[C@@H](C)O[C@@H](C)C3)CC2)cc1)C1CC1` (stereo partly drawn) [Compound A-779, 4-(1-cyclopropylethyl)-N-[2-(4-{[(2R,6S)-2,6-dimethylmorpholin-4-yl]methyl}piperidin-1-yl)phenyl]benzene-1-sulfonamide] returned a half-maximal activity concentration (AC50) (Homo sapiens, HeLa, 2 h) not above 2000 nM. The same measure, in the same setting: with `CS(=O)(=O)c1ccc(S(=O)(=O)Nc2cc(Cl)ccc2N2CCOCC2)cc1` [Compound A-299, N-[5-chloro-2-(morpholin-4-yl)phenyl]-4-methanesulfonylbenzene-1-sulfonamide] the figure was not below 10000 nM; with `CCS(=O)(=O)c1ccc(S(=O)(=O)Nc2ccccc2N2CCC(c3c(F)cccc3F)CC2)cc1` [Compound A-198, N-{2-[4-(2,6-difluorophenyl)piperidin-1-yl]phenyl}-4-(ethanesulfonyl)benzene-1-sulfonamide], not above 2000 nM. The same measure, in the same setting: with `COCC1(C)CCN(c2c(NS(=O)(=O)c3ccc(S(=O)(=O)N(C)C)cc3)ccc3c2cnn3C)CC1` [Compound A-746, N4-{4-[4-(methoxymethyl)-4-methylpiperidin-1-yl]-1-methyl-1H-indazol-5-yl}-N1,N1-dimethylbenzene-1,4-disulfonamide] the figure was not above 2000 nM. The same measure, in the same setting: with `CC(C)(C)C(=O)N1CCN(c2ccccc2NS(=O)(=O)c2ccc(OC3CC3)cc2)CC1` [Compound A-576, 4-cyclopropoxy-N-{2-[4-(2,2-dimethylpropanoyl)piperazin-1-yl]phenyl}benzene-1-sulfonamide] the figure was not below 10000 nM; with `CN(C)S(=O)(=O)c1ccc(S(=O)(=O)Nc2ccccc2N2CCC(c3ccc(Cl)cc3F)CC2)cc1` [Compound A-23, N4-{2-[4-(4-chloro-2-fluorophenyl)piperidin-1-yl]phenyl}-N1,N1-dimethylbenzene-1,4-disulfonamide], not above 2000 nM; with `CN(C)S(=O)(=O)c1ccc(S(=O)(=O)Nc2cc(Cl)nnc2N2CCC(c3ccc(Cl)cc3F)CC2)cc1` [Compound A-129, N4-{6-chloro-3-[4-(4-chloro-2-fluorophenyl)piperidin-1-yl]pyridazin-4-yl}-N1,N1-dimethylbenzene-1,4-disulfonamide], not below 10000 nM.

For `CC1(C)Cc2cc(S(=O)(=O)Nc3ccccc3N3CCCC4(CCCOC4)C3)ccc2O1` (centres unmarked) [Compound A-632, 2,2-dimethyl-N-(2-{2-oxa-8-azaspiro[5.5]undecan-8-yl}phenyl)-2,3-dihydro-1-benzofuran-5-sulfonamide], the AC50 (Homo sapiens, HeLa, 2 h) is not above 2000 nM.

The compound `COCC(F)(F)C1CCN(c2c(F)cccc2NS(=O)(=O)c2ccc(S(=O)(=O)N(C)C)cc2)CC1` [Compound A-861, N4-{2-[4-(1,1-difluoro-2-methoxyethyl)piperidin-1-yl]-3-fluorophenyl}-N1,N1-dimethylbenzene-1,4-disulfonamide] showed a half-maximal activity concentration (AC50) (Homo sapiens, HeLa, 2 h) not above 2000 nM. As to `C[C@@H]1CN(CC2CCN(c3c(F)cccc3NS(=O)(=O)c3ccc(S(C)(=N)=O)cc3)CC2)C[C@H](C)O1` (single isomer, unassigned) [Compound A-847], the AC50 was not below 10000 nM. In turn, `COC(=O)C(C)(C)c1ccc(S(=O)(=O)Nc2ccccc2N2CCC3(CC2)COC(C)(C)C3)cc1` [Compound A-710, methyl 2-{4-[(2-{3,3-dimethyl-2-oxa-8-azaspiro[4.5]decan-8-yl}phenyl)sulfamoyl]phenyl}-2-methylpropanoate] returned an AC50 (Homo sapiens, HeLa, 2 h) of 8010 to 9990 nM.

Turning to `CN(C)S(=O)(=O)c1ccc(S(=O)(=O)Nc2ccccc2N2CCN(CC(C)(F)F)CC2)cc1` [Compound A-525, N4-{2-[4-(2,2-difluoropropyl)piperazin-1-yl]phenyl}-N1,N1-dimethylbenzene-1,4-disulfonamide], the AC50 (Homo sapiens, HeLa, 2 h) is not above 2000 nM. On the same count and under the same terms, with `COCC1(C)CCN(c2cc(F)ccc2NS(=O)(=O)c2ccc(S(=O)(=O)N(C)C)cc2)CC1` [Compound A-694, N4-{4-fluoro-2-[4-(methoxymethyl)-4-methylpiperidin-1-yl]phenyl}-N1,N1-dimethylbenzene-1,4-disulfonamide] the figure was not above 2000 nM; with `CN(C)S(=O)(=O)c1ccc(S(=O)(=O)Nc2ccccc2N2CCN(CC3CCOC3)CC2)cc1` (centres unmarked) [Compound A-509, N1,N1-dimethyl-N4-(2-{4-[(oxolan-3-yl)methyl]piperazin-1-yl}phenyl)benzene-1,4-disulfonamide], 2010 to 8000 nM; with `O=C1COCCN1c1c(Cl)cccc1NS(=O)(=O)c1ccc2c(c1)CCC2` [Compound A-297, N-[3-chloro-2-(3-oxomorpholin-4-yl)phenyl]-2,3-dihydro-1H-indene-5-sulfonamide], not below 10000 nM.

On to `O=S(=O)(Nc1ccccc1N1CCC(c2ccc(Cl)cc2F)CC1)c1ccc(C(F)(F)F)cc1F` [Compound A-159, N-{2-[4-(4-chloro-2-fluorophenyl)piperidin-1-yl]phenyl}-2-fluoro-4-(trifluoromethyl)benzene-1-sulfonamide], for which the half-maximal activity concentration (AC50) (Homo sapiens, HeLa, 2 h) was in the range of 2010 to 8000 nM. Still for that read-out and setting: as for `C[C@@H]1CN(CC2CCN(c3c(F)cccc3NS(=O)(=O)c3ccc(S(=O)(=O)N4CCC4)cc3)CC2)C[C@H](C)O1` [Compound A-765, 4-(azetidine-1-sulfonyl)-N-[2-(4-{[(2R,6S)-2,6-dimethylmorpholin-4-yl]methyl}piperidin-1-yl)-3-fluorophenyl]benzene-1-sulfonamide], the figure is not above 2000 nM; as for `CC(c1cccc(F)c1N1CCCCC1)S(=O)(=O)c1ccc2c(c1)CCS2(=O)=O` (centres unmarked) [Compound A-920, 5-{1-[3-fluoro-2-(piperidin-1-yl)phenyl]ethanesulfonyl}-2,3-dihydro-1λ^6-benzothiophene-1,1-dione], not below 10000 nM. The same measure, in the same setting: as for `O=S(=O)(Nc1ccccc1N1CCN(c2ncc(Cl)cc2F)CC1)c1ccc(S(=O)(=O)C(F)(F)F)cc1` [Compound A-178, N-{2-[4-(5-chloro-3-fluoropyridin-2-yl)piperazin-1-yl]phenyl}-4-trifluoromethanesulfonylbenzene-1-sulfonamide], the figure is not above 2000 nM; as for `O=S1(=O)c2ccccc2CN1c1ccccc1N1CCC(c2ccc(Cl)cc2F)CC1` [Compound A-94, 2-{2-[4-(4-chloro-2-fluorophenyl)piperidin-1-yl]phenyl}-2,3-dihydro-1λ^6,2-benzothiazole-1,1-dione], 2010 to 8000 nM; as for `COCC1(C)CCN(c2ccccc2NS(=O)(=O)Cc2ccc(F)cc2)CC1` [Compound A-580, 1-(4-fluorophenyl)-N-{2-[4-(methoxymethyl)-4-methylpiperidin-1-yl]phenyl}methanesulfonamide], 8010 to 9990 nM. Still for that read-out and setting: as for `C[C@@H]1CN(CC2(F)CCN(c3c(F)cccc3NS(=O)(=O)c3ccc(S(=O)(=O)N(C)C)cc3)CC2)C[C@H](C)O1` [Compound A-794, N4-[2-(4-{[(2R,6S)-2,6-dimethylmorpholin-4-yl]methyl}-4-fluoropiperidin-1-yl)-3-fluorophenyl]-N1,N1-dimethylbenzene-1,4-disulfonamide], the figure is not above 2000 nM. Regarding `COC(C)C1(C)CCN(c2ccccc2NS(=O)(=O)c2ccc(S(=O)(=O)N(C)C)cc2)CC1` (centres unmarked) [Compound A-741, N4-{2-[4-(1-methoxyethyl)-4-methylpiperidin-1-yl]phenyl}-N1,N1-dimethylbenzene-1,4-disulfonamide], the concentration at half-maximal activity (AC50) (Homo sapiens, HeLa, 2 h) was not above 2000 nM. In turn, `CC(c1cccc(F)c1N1CCC(C)(C(F)F)CC1)S(=O)(=O)c1ccc(S(=N)(=O)N(C)C)cc1` (single isomer, unassigned) [Compound A-975, 4-((1-(2-(4-(difluoromethyl)-4-methylpiperidin-1-yl)-3-fluorophenyl)ethyl)sulfonyl)-N,N-dimethylbenzenesulfonimidamide] registered a concentration at half-maximal activity (AC50) not below 10000 nM.

For the setting “Homo sapiens, HeLa, 2 h”, `Cc1ccc(CS(=O)(=O)Nc2ccccc2N2CCN(C(=O)C(C)(C)C)CC2)cc1C` [Compound A-486, 1-(3,4-dimethylphenyl)-N-{2-[4-(2,2-dimethylpropanoyl)piperazin-1-yl]phenyl}methanesulfonamide] yielded an AC50 of 2010 to 8000 nM. Same read-out and setting: as for `CC(c1cccc(F)c1N1CCCCC1)S(=O)(=O)c1ccc(S(=O)(=O)C(F)F)cc1` (centres unmarked) [Compound A-973, 1-{2-[1-(4-difluoromethanesulfonylbenzenesulfonyl)ethyl]-6-fluorophenyl}piperidine], the figure is not above 2000 nM; as for `CN(C)S(=O)(=O)c1ccc(S(=O)(=O)Nc2cccc(Cl)c2N2CCN(C(=O)C(C)(C)C)CC2)cc1` [Compound A-352, N4-{3-chloro-2-[4-(2,2-dimethylpropanoyl)piperazin-1-yl]phenyl}-N1,N1-dimethylbenzene-1,4-disulfonamide], 2010 to 8000 nM.
